The target of the experiment is T1, 5-lipoxygenase (ALOX5) (Homo sapiens, UniProt P09917).
T1 sequence (P09917 1-674): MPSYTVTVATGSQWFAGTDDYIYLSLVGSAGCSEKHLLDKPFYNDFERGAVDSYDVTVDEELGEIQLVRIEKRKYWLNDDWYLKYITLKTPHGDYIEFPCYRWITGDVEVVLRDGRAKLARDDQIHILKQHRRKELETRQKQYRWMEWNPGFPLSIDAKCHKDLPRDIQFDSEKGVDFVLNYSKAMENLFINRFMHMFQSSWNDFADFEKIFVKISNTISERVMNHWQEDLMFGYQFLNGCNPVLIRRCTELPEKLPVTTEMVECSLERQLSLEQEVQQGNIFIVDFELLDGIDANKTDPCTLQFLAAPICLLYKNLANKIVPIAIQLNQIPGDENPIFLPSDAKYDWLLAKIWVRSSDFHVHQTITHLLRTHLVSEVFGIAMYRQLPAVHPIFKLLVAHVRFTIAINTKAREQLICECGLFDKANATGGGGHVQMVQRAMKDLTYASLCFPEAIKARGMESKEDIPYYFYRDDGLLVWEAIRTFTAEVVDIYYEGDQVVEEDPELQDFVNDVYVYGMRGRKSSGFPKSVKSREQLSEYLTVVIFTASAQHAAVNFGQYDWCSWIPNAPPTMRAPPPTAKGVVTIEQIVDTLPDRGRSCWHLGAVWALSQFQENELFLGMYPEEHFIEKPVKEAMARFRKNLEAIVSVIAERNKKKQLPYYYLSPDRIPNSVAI
The experiment in a line: enzyme kinetics of human recombinant ALOX5 at varying AA ([…]). The format is biochemical.

The values below come from publication PMC13483160, “Reorganization of Innate Immune Cell Lipid Profiles by Bioinspired Meroterpenoids to Limit Inflammation” (Advanced Science, 2026).

Turning to `CCCCC/C=C\C/C=C\C/C=C\C/C=C\CCCC(=O)O` [AA/20:4, 5Z,8Z,11Z,14Z‐eicosatetraenoic acid], the “enzyme kinetics of human recombinant ALOX5 at varying AA (3-300 μM)” value was “Lineweaver–Burk plot generated from activity data of human recombinant ALOX5”.
